Data: a melting point compilation (Tetko et al.; mined from patent text by program, amines drawn as free bases though some values may be those of a salt)

SMILES	melting point [°C]
CCCc1c(OCCCCCOc2ccc3oc(C(=O)O)cc3c2)ccc2c1OCCC2=O	192 to 195
CCCCCCCCCCNC(=O)c1cc(C(=O)NCCCCCCCCCC)cc(N(CCCC(=O)O)CCCC(=O)O)c1	154 to 156
CCCCc1ccc2c(c1)CC(C(=O)OCC)=NN2	150 to 152
COC(=O)C1Cc2cncn2C(=O)N1 (configuration not stated)	159 to 164
O=C1N(C2CCCCC2)CC(CN2CCC(O)(c3ccccc3)CC2)C1(c1ccccc1)c1ccccc1 (configuration not stated)	179 to 184
Cc1cc(NC(=O)c2c(C(F)(F)F)nc3c(C(F)(F)F)cccc3c2O)no1	216
CCOC(=O)c1cc(-c2csc(-c3ccnc(NC)c3)n2)c(=O)[nH]c1C(C)C	> 230
CSC(=NCC(C)C)Nc1cc(Cl)cc(Cl)c1	150
Cc1ccc(C(=O)Nc2cc(Cl)c(O)c(Cl)c2)c(O)c1	246 to 247
Cc1ccc(NC(=O)NCc2ccc3c(c2)CN(C2CCC(=O)NC2=O)C3=O)cc1C(F)(F)F (configuration not stated)	273 to 275
CC(C)(C)C(NC(=O)c1ccc(I)cc1)NC(=NC#N)Nc1cccnc1 (configuration not stated)	180 to 183
CC(C)(C)OC(=O)Nc1cc(OC(C)(C)C)c(-c2ccc(F)cc2)cc1N	139
COc1ccc(CCNC(=O)c2ccc3n2Cc2ccccc2N(C(=O)c2ccc(-c4ccccc4C)c(C)c2)C3)cc1	170 to 172
CC1CC2C(=C(Cl)C=CC2(F)n2[nH]c3c(c2=O)CCCC3)O1 (configuration not stated)	240 to 242
CSc1nc(=O)n(CC(=O)O)cc1F	244 to 245
COc1ccc2c(c1)CCc1cc(Nc3ccc(F)cc3F)ccc1C2=O	157
CC(C)CCC(=O)N[C@H]1CC[C@H](CCN2CCC(c3cccc4c3CCO4)CC2)CC1	188
CCCCC(Cc1ccc(OCCNC(=O)c2ccc(Oc3ccccc3)nc2)cc1)C(=O)O (configuration not stated)	124 to 125
CS(=O)(=O)CC(=O)N[C@H]1CC[C@H](CCN2CCN(c3nccc4ccoc34)CC2)CC1	182
CC(C)(C)NC(=O)N(CCc1ccccc1)CC(O)C(Cc1ccccc1)NC(=O)C(CC(N)=O)NC(=O)c1ccc2ccccc2n1 (configuration not stated)	139 to 140
O=C1CCCc2ncc(Cl)cc21	84 to 86
CCc1cn2c(N)c(Cl)cc(C(=O)NC3CCN(CCCOC)CC3)c2n1	179
CCOC(=O)C1=C(C)NC(=O)N(C(=O)OCC)C1c1cccc([N+](=O)[O-])c1Cl (configuration not stated)	176 to 178

SMILES	melting point [°C]
C#CC1(O)CCC2C3CCC4=CCCCC4C3C(=CF)CC21C (configuration not stated)	103 to 104
CC(C)(C)OC(=O)N[C@@H]1CN[C@H]2CCCO[C@H]21 (relative stereo)	110 to 111
CCCc1c(OCC(O)COc2ccc(CC(=O)O)cc2Br)ccc(C(C)=O)c1O (configuration not stated)	84
COC(=O)COC(=O)COc1ccc(-c2coc3cc(OCC(=O)OCC(=O)OC)ccc3c2=O)cc1	111 to 114
COc1c(C(=O)Nc2ccc(OCC(C)(C)C)c(C#N)c2)cnn1-c1ccc(F)cc1	120 to 123
Clc1cccc(N2CCN(CCCc3nnn[nH]3)CC2)c1	162 to 164
C=CCc1cccc(-c2nc3n(C4CCCC4)[nH]c(CC)c-3c(=O)n2)c1O	> 280
COc1c([N+](=O)[O-])cc(Br)c2c1C(=O)CC2	138 to 139
CC(C)Oc1cc(CCCO)n(Cc2ccc(Cl)cc2Cl)n1	51 to 52
COC(=O)c1sccc1S(=O)(=O)NC(=O)Nc1nc(OC)c2cc(C)oc2n1	194 to 196
CCCCCCCCCCCCCCCCCCOc1cc(OCCCCC(=O)O)cc(N(CC(=O)O)CC(=O)O)c1	126 to 128
CC1=C(/C=C/C(C)=C/C=C/C(C)=C/C(=O)OCOC(=O)Oc2ccc([N+](=O)[O-])cc2)C(C)(C)CCC1	35 to 36
COc1ccc2ncc([N+](=O)[O-])c(O)c2c1	278 to 281
CN1C(=O)CC[C@]2(C)c3ccc(Sc4nc(-c5ccccc5)cc5ccccc45)cc3CC[C@@H]12	183 to 189
N#CC(C#N)=C(NCCN1CCCCC1)N1CCC(CN2CCCCC2)CC1	78 to 80
O=C(O)C1NCCc2c1[nH]c1ccc(F)cc21 (configuration not stated)	237 to 238
COc1ccc(S(=O)(=O)n2ccc3ccnc(-c4ccc(C(F)(F)F)cc4)c32)cc1	143 to 145
COC(=O)Cc1c(C(=O)OC)ccn1CCOS(C)(=O)=O	99 to 101
CC(C)n1c(=O)sc2cc(N3C[C@H](C(N)=O)OC3=O)ccc21	183 to 184
COc1ccc([C@H](Sc2ccccc2N)[C@@H](O)C(N)=O)cc1	110 to 112
CC(C)n1c(/C=C/COc2ccc(C(=O)C(=O)O)cc2)c(-c2ccc(F)cc2)c2ccccc21	151 to 152
Cc1nc(C)c(CBr)nc1C	41.2 to 44
Cc1nc2ccc(OC(F)(F)F)cc2[nH]1	135 to 137

SMILES	melting point [°C]
CC(=O)NC1=NN(c2ccc(F)cc2)C(C)C1 (configuration not stated)	136 to 138
N#CCCCSc1nccc(NC(N)=NCC(F)(F)F)n1	137
Cc1c(Cl)c(C=O)c(C)c2c1CC(C)(C)C2	127
COc1ccc(C(=O)C=Cc2ccc([N+](=O)[O-])cc2)cc1	171 to 173
CN1CCN(C2Cc3ccccc3Sc3cc(F)c(F)cc32)CC1 (configuration not stated)	106 to 108
N#CC1=C(Nc2ccc(F)cc2F)CCC1	116 to 119
CN(C)C(=O)N1CCC(Nc2ncc3ncnc(Nc4ccc(F)c(Cl)c4)c3n2)CC1	187 to 188
C[C@@H]1N(C(=O)OC(C)(C)C)CC[C@]1(C)O	109 to 112
Cc1nc(Cn2nc(C(F)(F)F)cc2C(F)(F)F)ccc1NC(=O)c1cccc(Cl)c1C(=O)N[C@@H](C)CS(C)=O (some centres not stated)	183
CCOC(=O)c1cn(C2CC2)c2c(F)c(F)c(F)c(CC)c2c1=O	139 to 140
CNC(=O)N(O)C(C)C#Cc1ccc(Cl)cc1 (configuration not stated)	151 to 153
CN1Sc2cc3c(cc2CC1=O)CCCC3	202 to 203
CCC1(CCOC2CCCCO2)C(=O)NNC1=O (configuration not stated)	188 to 191
CC(C)(O)c1ccc(CNC(=O)c2cccnc2Oc2ccc3ncoc3c2)cc1	92 to 94
CC=CCn1c(C)c(C)c2cnnc(OCc3c(F)cccc3F)c21	85 to 94
O=C(O)c1ccc([N+](=O)[O-])c(C(=O)O)c1	257 to 258
N=C(Nc1ccc(F)c(NC(=O)/C=C/c2ccccc2C(F)(F)F)c1)c1cccs1	208 to 209
Clc1ccc(-c2ccc(C=CC3COC4(CCCCC4)OO3)cc2)cc1 (configuration not stated)	109 to 111
CC1(C)Oc2cnccc2C2OC21 (configuration not stated)	110 to 112
COC(=O)c1ccc(N=Cc2cccc(Cl)c2)cn1	139 to 142
O=C1CCC(N2Cc3c(OCc4ccc(C(F)(F)F)cc4)cccc3C2=O)C(=O)N1 (configuration not stated)	241 to 243

Results, then the compound that gave them:

melting point [°C]	SMILES
179 to 182	CSc1ncc(Cc2ccncc2)c(=O)[nH]1
131 to 134	O=C(O)CCCc1cc2cc(Cl)ccc2n1S(=O)(=O)c1ccc2c(c1)OCCO2
158 to 161	Nc1cccc(-c2ccccc2O)c1
125 to 126	CSc1c(C=C(C#N)S(C)(=O)=O)c2ccccc2n1Cc1ccccc1
138 to 140	Cc1cc(N)n(C(CCc2ccccc2)=NO)n1
140 to 142	CCCc1nc2c(N)nc3ccccc3c2s1
165 to 175	O=C(O)CCc1cc2cc(Cl)ccc2n1S(=O)(=O)c1cccc2ccccc12
176 to 178	O=C(O)c1cc(S(=O)(=O)NCCc2ccc(Cl)cc2)ccc1Cl
77.5 to 78	O=C1C(Cl)=C(c2ccccc2)C1(F)F
221	CC(C)(C)OC(=O)N1CCC(OCc2ccccc2)C1CC(=O)Cn1cnc2ccncc2c1=O (configuration not stated)
51 to 53	CC(C)(C#N)c1cc(Cn2cncn2)cc(C(C)(C)C(N)=O)c1
180 to 195	O=S(=O)(Cl)c1ccccc1Cn1cncn1
97 to 100	CCOCn1c(S(=O)(=O)C(F)(F)C(F)Cl)c(C#N)c2ccccc21 (configuration not stated)
167 to 168	O=C(O)C(=O)c1ccc(OCCOc2ccc3ccccc3c2)c(Cl)c1
72 to 74	Cc1ccc([N+](=O)[O-])cc1S(=O)(=O)N(C)C
167 to 168	N/C(=C1/Sc2ccccc2C1=O)c1ccccc1Cl
185	Oc1c(CN2CCSCC2)ncc2c1COC2c1ccccc1 (configuration not stated)
231 to 232	CC(=O)Nc1ccc(-c2nc(=O)c3ccccc3s2)cc1

melting point [°C]	SMILES
> 155	CCCCNC(=O)c1ccc(Cl)c(-n2nc(CCCC)n(Cc3ccc(-c4ccccc4S(=O)(=O)NC(=O)c4ccccc4Cl)cc3)c2=O)c1
214	O=C(Nc1ccccc1S(=O)(=O)NCC1CCCCC1)N[C@@H](Cc1ccc(NC(=O)c2c(Cl)cncc2Cl)cc1)C(=O)O
174 to 176	CC(=O)SC[C@H](NC(=O)C(C)C)C(=O)NCCSC(=O)c1ccccc1
284	Cc1nc(NC(=O)c2cnn3c(C(F)F)cc(-c4ccc(C(F)(F)F)cc4)nc23)sc1S(N)(=O)=O
107 to 109	Cc1cn(C(C)(C(=O)N(C)C)c2ccccc2)nc1-c1ccccc1 (configuration not stated)
107 to 108	COC(=O)[C@@H](NC(=O)OCc1ccccc1)[C@H](O)c1ccccc1
103	Fc1ccc2c(c1)CC[C@H](CNCCNc1ncccn1)O2
135 to 137	Cc1nccn1CCC(=O)NC(C)c1ccc(Cl)cc1 (configuration not stated)
151	CS(=O)(=O)Nc1ccc(C=O)cc1F
163 to 164	O=C1N(Cc2ccccc2)C2CSC(O)C2N1Cc1ccccc1 (configuration not stated)
173 to 174	CCOC(=O)c1cc2cccc(NS(=O)(=O)c3ccsc3C(=O)OC)c2[nH]1
85.5 to 87	CCNC(=O)c1ccccc1NS(=O)(=O)C(F)(F)F
113 to 114	COc1cc(/C=C/CO)ccc1OCc1coc(-c2ccccc2)n1
101 to 102	O=C(c1ccccc1)N1CCn2c(CN3CCOCC3)ccc2C1
45	CCOc1nn(-c2ccccc2Cl)c(=O)o1
91 to 93	Clc1ccc2c(c1)CCC(c1ccccc1)S2 (configuration not stated)
178 to 181	Cc1ccc(Cn2c(C)cc(C)c(C#N)c2=O)cc1
